# According to US11969465B2, “Toxoplasma gondii vaccines and their use” (Alpha-O Peptides AG, priority 2016, dated 2024):
# Where two headings read alike, the source gives them in different places.
# Legend:
# [1] = tested on: PBMC from T. gondii-seropositive HLA-A03 individuals; experiment: IFN-γ ELISpot assay with human PBMC; assay type: cell-based; conditions: for IFN-γ-secreting spot formation: PBMC from Toxoplasma seropositive HLA-A03 individuals, compared to an irrelevant HLA-A*1101-restricted peptide
# Procedure: To determine which of these peptides would be recognized in the context of Toxoplasma infection, peripheral blood mononuclear cells (PBMC) from T. gondii-seropositive HLA-A03 individuals were tested for response to these peptides in pools or individually by using an IFN-γ ELISpot assay. Candidate peptides were considered immunogenic if they induced IFN-γ-secreting spot formation that was significant compared to an irrelevant HLA-A*1101-restricted peptide.
# The epitopes were linked together with N/K alanines or GPGPG (SEQ ID NO: 23) as linker, named as LO and AZ, respectively (FIG. 3A-B). […] Immunogenicity of the two proteins compared to the pool of the 5 individual A11-restricted CD8^+ T cell epitope peptides was tested in vitro.
# PBMC were obtained from individuals seropositive to T. gondii, and their HLA haplotype was determined.
# [2] = molecular target: T1, TLR5 (Homo sapiens, UniProt O60602); assay type: cell-based; conditions: for TLR5 activity (SEAP expression): 0.01-1000 ng/ml, 24 hours
# T1 construct: expressed in transfected cells; host or cells: HEK 293 (stably co-transfected with TLR5 and NF-kB-driven SEAP reporter)
# T1 sequence (O60602 21-858): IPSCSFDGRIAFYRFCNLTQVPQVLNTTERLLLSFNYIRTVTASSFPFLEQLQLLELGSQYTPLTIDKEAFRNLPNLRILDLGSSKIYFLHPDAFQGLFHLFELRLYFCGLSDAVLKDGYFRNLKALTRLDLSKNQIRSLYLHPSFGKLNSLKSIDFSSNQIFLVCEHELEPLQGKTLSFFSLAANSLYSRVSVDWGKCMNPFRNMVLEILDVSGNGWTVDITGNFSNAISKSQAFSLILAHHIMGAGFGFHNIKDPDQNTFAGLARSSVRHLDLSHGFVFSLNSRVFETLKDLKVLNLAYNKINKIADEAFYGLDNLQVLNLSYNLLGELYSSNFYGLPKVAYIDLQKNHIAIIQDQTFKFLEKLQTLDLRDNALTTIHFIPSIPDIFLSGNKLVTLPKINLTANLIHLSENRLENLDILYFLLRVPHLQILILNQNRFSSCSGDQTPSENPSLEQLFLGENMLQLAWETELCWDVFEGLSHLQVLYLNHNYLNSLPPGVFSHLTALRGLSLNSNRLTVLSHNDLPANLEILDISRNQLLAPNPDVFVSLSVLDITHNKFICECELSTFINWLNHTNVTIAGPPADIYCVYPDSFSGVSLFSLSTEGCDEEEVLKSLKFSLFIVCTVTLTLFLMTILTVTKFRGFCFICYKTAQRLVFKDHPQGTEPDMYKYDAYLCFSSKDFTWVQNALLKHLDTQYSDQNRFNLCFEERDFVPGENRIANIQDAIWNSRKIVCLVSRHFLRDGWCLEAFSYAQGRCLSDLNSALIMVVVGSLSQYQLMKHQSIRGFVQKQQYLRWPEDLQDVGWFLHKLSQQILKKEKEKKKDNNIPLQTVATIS
# [3] = Immune response to Tox-All in HLA transgenic mice; design: species or system HLA A2 and HLA A11 mice; conditions: mouse, in vivo
# Excerpt: The schematic diagrams of SAPN A11 (SEQ ID NO:27) in FIG. 17A 12e is similar to the schematic diagram of the more complex SAPN Tox-All (FIG. 17B). (FIG. 12f). […] Tox-All contains CD8 T cell eliciting epitopes by binding to HLA All, A2, and B7, PADRE a universal CD4 T cell eliciting epitope, protein domains that can elicit antibody (data not shown). Tox-All has the same scaffold flagellin that is shown for SAPN A11. […] Additional CD8 peptides that bind to other HLA molecules to broaden population coverage and CD4 peptides can be added in this complex SAPN. Additional proteins that elicit B cells can also be included in the SAPN. This allows us to tailor an immune response for each component of the immune system we wish to stimulate. The methods and approaches are those described for the A11 SAPN.
molecule,measurement,setting,value
SSAYVFSVK [SRS52A250-258],IFN-γ-secreting spot formation,[1],stimulated significant response
AVVSLLRLLK [GRA589-98],IFN-γ-secreting spot formation,[1],stimulated significant response
STFWPCLLR [SAG2C13-21],IFN-γ-secreting spot formation,[1],stimulated significant response
"Concanavalin A [Con A, reference compound]","IFN-γ ELISpot response, seropositive versus seronegative donors",[1]; PBMC of 3 seropositive and 3 seronegative HLA-A03 individuals,response of PBMC from both seronegative and seropositive donors
"CD8-SAPN: self-assembling protein nanoparticle with five CD8+ epitopes and PADRE inserted into flagellin (protein, (1)..(14) optionally absent) MGDKHHHHHHHHHHKDGSDKGSWEEWNARWDEWENDWNDWREDWQAWRDDWARWRATWMGGRLLSRLERLERRNEELRRLLQLIRHENRMVLQFVRALSMQNAELERRLEELARGMAQVINTNSLSLLTQNNLNRSQSALGTAIERLSSGLRINSARDDAAGQAIANRFTANIRGLTQASRNANDGISIAQTTEGALNEINNNLQRVRELAVQSANSTNSQSDLDSIQAEITQRLNEIDRVSGQTQFNGVRVLAQDNTLTIQVGANDGETIDIDLRQINSQTLGLDQLNVQQEYESDDAVVSLLRLLKNAMLTAFFLRNAAAKSFKDILPKKAAASSAYVFSVKKAAAKFVAAWTLKAAAKSTFWPCLLRDSDSDTENPLQRIDAALAQVDALRSDLGAVQNRFNSAITNLGNTVNNLSEARSRIEDSDYATEVSNMSRAQILQQAGTSVLAQANQVPQNVLSLLR",TLR5 activity (SEAP expression),[2],significantly enhanced
same,TLR5 activity (SEAP expression),[2]; listed as SAPN,good stimulation
"Tox-All: SAPN with HLA A11, A2 and B7 CD8 epitopes, PADRE, antibody-eliciting domains and flagellin (protein, (1)..(14) optionally absent) MGDDHHHHHHHHHHWFMGVLVNSLQDITMGSLFFVQDFMIVSISLVQDGLAAAVVAVQDLPQFATAATRDSPASGRYIQQMLDQRCQEIAAELCQSGLRKMCVPSSRIVARNAVGITHQNTLQWRCFDTASLLESNQENNGVNCVDDCGHTIPCPGGVHRQNSNHATRHEILSKLVEEGVQRFCSPYQASANKYCNDKFPGTIARRSKGFGNNVEVAWRCYEKASLLYSVYAECASNCGTTWYCPGGRRGTSTELDKRHYTEEEGIRQAIGSVDSPCSEVEVCLPKDENPPLCLDESGQISRGSWEEWNARWDEWENDWNDWREDWQAWRDDWARWRATWMGGRLLSRLERLERRNEELRRLLQLIRHENRMVLQFVRALSMQNAELERRLEELARGMAQVINTNSLSLLTQNNLNRSQSALGTAIERLSSGLRINSARDDAAGQAIANRFTANIRGLTQASRNANDGISIAQTTEGALNEINNNLQRVRELAVQSANSTNSQSDLDSIQAEITQRLNEIDRVSGQTQFNGVRVLAQDNTLTIQVGANDGETIDIDLRQINSQTLGLDQLNVQQEYESDDAVVSLLRLLKNAMLTAFFLRNAAAKSFKDILPKKAAASSAYVFSVKKAAAKFVAAWTLKAAAKSTFWPCLLRDSDSDTENPLQRIDAALAQVDALRSDLGAVQNRFNSAITNLGNTVNNLSEARSRIEDSDYATEVSNMSRAQILQQAGTSVLAQANQVPQNVLSLLR",immune response,[3],stimulates an immune response
same,TLR5 stimulation,[2]; data not shown,stimulates TLR5
